Columns and labels:
PYR1 = biological target: T1, PYR1 (Arabidopsis thaliana, UniProt O49686); test: Protein dephosphorylation enzyme activity test, PYR1; format: biochemical, thale cress; conditions: control = 100%
T1 construct: 6xHis (N); made in house; host or cells: Escherichia coli BL21-codonplus(DE3)-RIPL (PYL); BL21(DE3)pLysS (HAB1)
T1 sequence (O49686 1-191): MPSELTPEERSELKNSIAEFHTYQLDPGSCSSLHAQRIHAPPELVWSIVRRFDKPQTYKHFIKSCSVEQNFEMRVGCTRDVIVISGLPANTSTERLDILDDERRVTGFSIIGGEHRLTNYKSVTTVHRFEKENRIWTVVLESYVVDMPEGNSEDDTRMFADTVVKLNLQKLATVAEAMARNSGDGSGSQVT
Experimental: (§1) A plasmid (pGex-2T-GST-HAB1 or pET28-6×His-PYL) encoded with PYR/PYL/RCAR proteins (PYL, abscisic acid receptor) or protein dephosphorylation enzyme HAB1 of thale cress was transformed to Escherichia coli (HAB1:BL21(DE3)pLysS, PYL:BL21-codonplus(DE3)-RIPL). Isopropyl-β-thiogalactopyranoside was added to the culture broth, which had been subjected to pre-culture (30° C., 180 rpm, 15 hours) and main culture (30° C., 180 rpm, 4 hours), and the protein-expressed (16° C., 150 rpm, 18 hours) crude enzyme solution was purified using FPLC thereby preparing the recombined PYL (PYR1, PYL1-6, PYL8-10) and HAB1. β-Mercaptoethanol, a manganese chloride aqueous solution, HAB1, PYL, a solution of the sample in dimethylsulfoxide and ultrapure water were sequentially added to a 96-well plate, allowed to stand at 22° C. for 30 minutes. Subsequently p-nitrophenylphosphate, which is the artificial substrate of HAB1, was added thereto to start the reaction, and the plate was placed in a microplate reader (TECAN, Infinite™ N200 NanoQuant). The absorbance at 405 nm due to p-nitrophenol, which is the hydrolysate of p-nitrophenylphosphate, was measured 3 minutes later from the reaction initiation, and HAB1 activity was calculated by the following formula (2). Note that the fraction to which only dimethylsulfoxide was added was considered to be the control and the activity thereof was defined as 100%. […] HAB1 specific activity (%)=Absorbance when sample was added/Absorbance of control×100 (2)

PYL9 = biological target: T2, PYL9 (Arabidopsis thaliana, UniProt Q84MC7); test: Protein dephosphorylation enzyme activity test, PYL9; format: biochemical, thale cress; conditions: control = 100%
T2 construct: 6xHis (N); made in house; host or cells: Escherichia coli BL21-codonplus(DE3)-RIPL (PYL); BL21(DE3)pLysS (HAB1)
T2 sequence (Q84MC7 1-187): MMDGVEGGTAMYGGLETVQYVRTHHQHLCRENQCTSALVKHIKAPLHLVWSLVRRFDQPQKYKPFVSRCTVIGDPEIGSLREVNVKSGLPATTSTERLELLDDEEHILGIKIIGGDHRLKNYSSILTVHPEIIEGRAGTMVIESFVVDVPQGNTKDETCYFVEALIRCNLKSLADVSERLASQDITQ
Experimental: as §1

PYL10 = biological target: T3, PYL10 (Arabidopsis thaliana, UniProt Q8H1R0); test: Protein dephosphorylation enzyme activity test, PYL10; format: biochemical, thale cress; conditions: control = 100%
T3 construct: 6xHis (N); made in house; host or cells: Escherichia coli BL21-codonplus(DE3)-RIPL (PYL); BL21(DE3)pLysS (HAB1)
T3 sequence (Q8H1R0 1-183): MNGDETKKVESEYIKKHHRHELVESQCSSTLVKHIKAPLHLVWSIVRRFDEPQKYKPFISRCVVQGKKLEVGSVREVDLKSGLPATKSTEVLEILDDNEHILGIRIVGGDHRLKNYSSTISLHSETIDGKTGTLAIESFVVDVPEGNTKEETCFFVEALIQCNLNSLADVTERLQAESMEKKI
Experimental: as §1

[1] = tested on: seeds of thale cress (Arabidopsis thaliana, Col-0); test: Thale cress seed germination test; format: in vivo
Experimental: Seeds of thale cress (Arabidopsis thaliana, Col-0) were immersed in 500 μL of an aqueous solution of 70% ethanol for 30 minutes, subsequently in 500 μL of a 100% ethanol solution for 1 minute, washed five times in 1 mL of distilled water, then immersed in distilled water and, in a dark place, vernalized at 4° C. for 3 days. A solution of the sample in methanol was put in a 1.5 mL-microtube, and methanol was removed therefrom under reduced pressure. An aqueous solution of 0.5% agar (containing ½ MS medium inorganic salts) at 70° C. was added thereto and stirred, and subsequently the obtained mixture was placed in a 96-well plate to prepare the medium containing the sample. All samples were prepared so as to have a concentration of 3 μM of the compound in Examples 1 to 9 and Comparative Example 1. Further, when ABA is applied, the ABA concentration was adjusted to 0.3 μM. 20 to 30 vernalized seeds of thale cress were planted in each well and cultured at 22° C. under continuous light to monitor the number of seeds germinated over time. The germination rate was calculated by the following formula (1). Note that those cultured in medium prepared using methanol in the same manner were used as controls. […] Germination rate (%)=Number of seeds germinated/Number of seeds planted×100 (1)
The same test was carried out as in Test Example 1 with the concentrations of the compound of Example 1 for treatment varying from 0.3 μM to 30 μM.
Similarly, the same test was carried out with the concentrations of the compound of Example 2 for treatment varying from 0.3 μM to 30 μM.
The same test was carried out as in Test Example 2 with the concentrations of the compounds for treatment varying from 0.3 μM to 3 μM to compare the recovery effects on seed germination rate of the compound of Example 1 and the compound of Comparative Example 1.

[2] = 3 μM compound co-applied with 0.3 μM ABA

Question: Which “HAB1 Specific activity (%) PYR1” value (PYR1; sample alone) does the source give for `CC1=CC(=O)CC(C)(C)[C@@]1(O)/C=C/C(C)=C\C(=O)O` [ABA, abscisic acid] here?
Answer: The value was 18.6%.

Question: What about the “HAB1 Specific activity (%) PYL9” value (PYL9; sample alone) of the same compound?
Answer: The value was 31%.

Question: And the “HAB1 Specific activity (%) PYL10” value (PYL10; sample alone)?
Answer: Its value is 16.2%.

Question: And the “Germination rate (%) 24 Hours later” value ([1]; ABA alone, 0.3 μM)?
Answer: The value was 0%.

Question: And the “Germination rate (%) 36 Hours later” value ([1]; ABA alone, 0.3 μM)?
Answer: The value was 0%.

Question: What about the “Germination rate (%) 48 Hours later” value ([1]; ABA alone, 0.3 μM) of the same compound?
Answer: Its value is 16.2%.

Question: What about the “Germination rate (%) 60 Hours later” value ([1]; ABA alone, 0.3 μM) of the same compound?
Answer: Its value is 32.6%.

Question: Which “HAB1 Specific activity (%) PYR1” value (PYR1; ABA + compound) does the source give for `CC1=C[C@@H](OCC#Cc2ccccc2)CC(C)(C)[C@@]1(O)/C=C/C(C)=C\C(=O)O` [Example 1, (2Z,4E)-5-((1S,4S)-1-hydroxy-2,6,6-trimethyl-4-((3-phenylprop-2-yn-1-yl)oxy)cyclohex-2-en-1-yl)-3-methylpenta-2,4-dienoic acid] here?
Answer: Its value is 49%.

Question: What about the “HAB1 Specific activity (%) PYR1” value (PYR1; sample alone) of the same compound?
Answer: The value was 99.6%.

Question: What about the “HAB1 Specific activity (%) PYL9” value (PYL9; ABA + compound) of the same compound?
Answer: The value was 90%.

Question: And the “HAB1 Specific activity (%) PYL9” value (PYL9; sample alone)?
Answer: The value was 111%.

Question: And the “HAB1 Specific activity (%) PYL10” value (PYL10; ABA + compound)?
Answer: The value was 90.7%.

Question: And the “HAB1 Specific activity (%) PYL10” value (PYL10; sample alone)?
Answer: Its value is 93.7%.

Question: What about the “Germination rate (%) 24 Hours later” value [1, 2] of the same compound?
Answer: Its value is 0%.

Question: What about the “Germination rate (%) 36 Hours later” value [1, 2] of the same compound?
Answer: Its value is 79%.

Question: And the “Germination rate (%) 48 Hours later” value [1, 2]?
Answer: The value was 100%.

Question: What about the “Germination rate (%) 60 Hours later” value [1, 2] of the same compound?
Answer: Its value is 100%.

Question: What about the “Recovery of seed germination rate decreased by ABA” value ([1]; compound 0.3 μM to 30 μM co-applied with ABA) of the same compound?
Answer: The value was “seed germination rates decreased by ABA are recovered”.

Question: What about the “Germination rate (%) 24 Hours later” value ([1]; compound alone, 3 μM) of the same compound?
Answer: Its value is 0%.

Question: What about the “Germination rate (%) 36 Hours later” value ([1]; compound alone, 3 μM) of the same compound?
Answer: The value was 86%.

Question: What about the “Germination rate (%) 48 Hours later” value ([1]; compound alone, 3 μM) of the same compound?
Answer: The value was 100%.

Question: And the “Germination rate (%) 60 Hours later” value ([1]; compound alone, 3 μM)?
Answer: The value was 100%.

Question: What about the “Recovery effect on seed germination rate, comparison” value ([1]; compounds 0.3 μM to 3 μM, co-applied with ABA) of the same compound?
Answer: The value was “excels in the recovery effect on seed germination rate more than the compound of Comparative Example 1”.

Question: `CC1=C[C@@H](OCC#Cc2ccc(C)cc2)CC(C)(C)[C@@]1(O)/C=C/C(C)=C\C(=O)O` [Example 7] was tested. Which “HAB1 Specific activity (%) PYR1” value (PYR1; ABA + compound) did it give?
Answer: The value was 62.6%.

Question: And the “HAB1 Specific activity (%) PYR1” value (PYR1; sample alone)?
Answer: The value was 95.7%.

Question: What about the “HAB1 Specific activity (%) PYL10” value (PYL10; ABA + compound) of the same compound?
Answer: Its value is 82.5%.

Question: What about the “HAB1 Specific activity (%) PYL10” value (PYL10; sample alone) of the same compound?
Answer: The value was 99.0%.

Question: And the “Germination rate (%) 24 Hours later” value [1, 2]?
Answer: Its value is 0%.

Question: What about the “Germination rate (%) 36 Hours later” value [1, 2] of the same compound?
Answer: Its value is 76%.

Question: What about the “Germination rate (%) 48 Hours later” value [1, 2] of the same compound?
Answer: The value was 100%.

Question: What about the “Germination rate (%) 60 Hours later” value [1, 2] of the same compound?
Answer: The value was 100%.

Question: What about the “Germination rate (%) 24 Hours later” value ([1]; compound alone, 3 μM) of the same compound?
Answer: Its value is 0%.

Question: What about the “Germination rate (%) 36 Hours later” value ([1]; compound alone, 3 μM) of the same compound?
Answer: Its value is 86%.

Question: And the “Germination rate (%) 48 Hours later” value ([1]; compound alone, 3 μM)?
Answer: Its value is 100%.

Question: And the “Germination rate (%) 60 Hours later” value ([1]; compound alone, 3 μM)?
Answer: Its value is 100%.

Source: US10125095B2, “Abscisic acid derivative” (NATIONAL UNIVERSITY CORPORATION SHIZUOKA UNIVERSITY, priority 2014, dated 2018)
